Laboratory results taken from patent US20090325202A1, “Methods for Developing and Assessing Therapeutic Agents” (priority 2006, published 2009).

How the values were obtained:
S6 ribosomal protein [1] = assay: Panc 265 xenograft FNAB cells treated ex vivo, S6 ribosomal protein phosphorylation; type: cell-based, human; conditions: Panc 265 FNAB cells; CCI-779 1 uM; 6 hours
Protocol: (§1) To obtain cancer cells, each animal tumor was sampled as described above. After collection of tumor FNAB samples, xenograft animals were subsequently treated with ZD1839 or CCI-779 for 28 days and tumor volumes were determined as described above. At day 7 of therapy, AD/DQ slides were prepared from tumor FNAB samples to retrospectively correlate the results of in vivo and ex vivo chemosentitivty tests from the same xenograft animal.
To determine viability of tumor cells obtained by FNAB, trypan blue dye exclusion assay was performed. The viability of tumor cells obtained by tumor FNAB from control animals was over 95%. Approximately 75,000 tumor cells were seeded into each well of a 6-well polypropylene microplate. Cells were treated in duplicates with vehicle (control) or with ZD1839 (5 uM) or CCI-779 (1 uM) in a humidified 5% CO2 incubator at 37° C. for different periods to determine the optimal treatment time to analyze drug effects.
(§2) After the treatment cells were collected, protein extracts were prepared and Western blot analysis was performed as described above. The ex vivo effect of ZD 1839 and CCI-779 on phosphorylation of ERK1/2 or S6 ribosomal proteins, respectively, was correlated with the in vivo data gathered from the FNAB smears prepared at day 7 of treatment.

S6-RP = assay: Ex vivo FNAB drug sensitivity assay, S6-RP phosphorylation by Western blot; type: cell-based, human
Protocol: Tumor cells were collected by FNAB from the xenograft animals before the start of treatment using a sterile 25G short needle. Tumor samples were immediately transferred into 10 ml sterile prewarmed complete RPMI-1640 culture medium containing 10% FBS, penicillin (200 μg/ml), and streptomycin (200 μg/ml). Cells were incubated with 0.04% trypan blue (Sigma) dissolved in PBS (9.1 mM Na2HPO4, 1.7 mM NaH2PO4, and 150 mM NaCl, pH 7.4). The viable (membrane-intact) and dead cells were then counted using Neubauer hemocytometer and the total viable cell count was used to calculate final working volumes. Approximately 25,000 viable tumor cells were seeded into each well of a 6-well polypropylene microplate. Cells were treated in duplicates with vehicle (control), erlotinib (5 μM) or temsirolimus (1 μM) in a humidified 5% CO2 incubator at 37° C. for 6 hours. No fibroblast and endothelial cell growth was observed. Following treatment, non-adherent and adherent cells (only a few, collected by scraping) were pooled together and centrifuged at 500×g for 5 min at 4° C. After washing with PBS, cells were lysed in 100 μL of ice-cold lysis buffer (50 mM Tris-HCl, 0.25M NaCl, 0.1% (v/v) Triton X-100, 1 mM EDTA, 50 mM NaF, and 0.1 mM Na3VO4, pH 7.4) containing protease and phosphatase inhibitors (Roche Molecular Biochemicals) and analyzed by Western blot.
Protein concentrations obtained from FNAB samples were quantified before each experiment. Protein extracts (15 μg) were electrophoresed on a 10% (w/v) SDS-polyacrylamide gel. After electrotransfer to Immobilon-P membranes (Millipore), membranes were blocked at room temperature using SuperBlock (Pierce) for one hour. The primary antibodies were diluted at 1:1000 in 1:10 dilution of SuperBlock solution and the membranes were incubated with primary antibodies overnight at 4° C. The antibodies tested were phospho-ERK1/2 (Cell signal #9101), phospho-S6 Ribosomal Protein (Cell Signaling Technology, Beverly, Mass.) and total ERK1/2 (Cell Signaling Technology, Beverly, Mass.) and total S6 Ribosomal Protein (Cell Signaling Technology, Beverly, Mass.). The next day, the membranes were washed and incubated for 1 h at room temperature with horseradish peroxidase (HRP)-conjugated secondary antibodies, rabbit IgG-HRP (Santa Cruz Biotechnology), or mouse IgG-HRP (Santa Cruz Biotechnology) at a final dilution of 1:3000. […]
To test if tumor cells obtained by FNAB can be used in the ex vivo assays to predict tumor response in vivo, 25,000 viable cancer cells, as determined by trypan blue dye exclusion, were treated with erlotinib or temsirolimus for six hours, after which signal pathway inhibition was analyzed by Western blot. Under these cell culture conditions no fibroblast and endothelial cell growth was detected (data not shown). […]

[2] = system: Panc 265 human pancreas cancer xenograft; assay: Panc 265 xenograft tumor growth; type: in vivo, nude mice; conditions: CCI-779 20 mg/kg days 1-5 i.p.
Description: Tumor tissue was then cut into slices (5×5×0.5−1 mm diameter) and implanted subcutaneously into nude mice. Tumor slices averaging 5×5×0.5−1 mm diameter from the patient, or 3×3×0.5−1 mm dia in serial passage were implanted subcutaneously into both flanks of nude mice. Tumors were removed under sterile conditions/laminar flow and reimplanted subcutaneously in groups of 5 mice. When the tumors on second passage of each group reached 1.5 cm, they were excised and cut into pieces of 3×3×3 mm, and transplanted on another 35-40 mice.
For the in vivo assessment experiments, treatment started when the mean tumor volumes reach approximately 200 mm.
To obtain cancer cells, each animal tumor was sampled as described above. […] At day 7 of therapy, AD/DQ slides were prepared from tumor FNAB samples to retrospectively correlate the results of in vivo and ex vivo chemosentitivty tests from the same xenograft animal.

[3] = system: primary human pancreatic cancer xenograft tumors; assay: Tumor growth (RTG) in xenograft mouse models of primary human pancreatic cancer; type: in vivo, athymic (nu+/nu+) mice
Description: Four-week-old female athymic (nu+/nu+) mice were purchased from Harlan (Harlan Laboratories, Washington, D.C.). The research protocol was approved by the Johns Hopkins University Animal Care and Use Committee and animals were maintained in accordance to guidelines of the American Association of Laboratory Animal Care. Briefly, frozen pancreatic xenografts in first passage in mice, after being obtained from surgical specimens of patients undergoing pancreatic resection for adenocarcinoma at the Johns Hopkins Hospital were re-implanted subcutaneously in groups of 5 mice for each patient, with 2 small pieces per mouse (F2 generation). Tumors were allowed to grow to a size of 1.5 cm at which point they were harvested, divided into small ˜3×3×3 mm pieces, and transplanted to another 18-22 mice, with two tumors per mouse. Tumors from this second mouse-to-mouse passage were allowed to grow until reaching −200 mm^3, at which time mice were randomized in the following three treatment groups, with 6 mice in each group: control (vehicle), erlotinib (50 mg/kg/day i.p.), and temsirolimus (20 mg/kg days 1-5 i.p.). Mice were monitored daily for signs of toxicity and were weighed three times per week. Tumor size was evaluated three times per week by caliper measurements using the following formula: tumor volume=[length×width^2]/2 as previously reported (19). Relative tumor growth (RTG) was calculated by tumor growth of treated mice divided by tumor growth of control mice (T/C)×100. Experiments were terminated on day 28. Tumor response was defined as sensitive, when RTG was less than 50% on day 28.

S6 ribosomal protein [4] = assay: Panc 265 xenograft in vivo FNAB smears, S6 ribosomal protein phosphorylation; design: species or system human; conditions: CCI-779 20 mg/kg days 1-5 i.p., FNAB day 7
Protocol: Animals were either untreated or treated with ZD1839: 150 mg/Kg daily or CCI-779: 20 mg/kg days 1-5 by intraperitoneal injection
as §1, §2

With `CO[C@H]1C[C@@H]2CC[C@@H](C)[C@@](O)(O2)C(=O)C(=O)N2CCCC[C@H]2C(=O)O[C@H]([C@H](C)C[C@@H]2CC[C@@H](OC(=O)C(C)(CO)CO)[C@H](OC)C2)CC(=O)[C@H](C)/C=C(\C)[C@@H](O)[C@@H](OC)C(=O)[C@H](C)C[C@H](C)/C=C/C=C/C=C/1C` [temsirolimus, Temsirolimus] the “activity (phosphorylation) of target protein S6 ribosomal protein ex vivo” value (S6 ribosomal protein [1]) was “successfully inhibited the activity of its target protein”, the “S6-RP phosphorylation ex vivo” value (S6-RP; all tumors of the xenograft panel sensitive to therapy, temsirolimus 1 μM, 6 hours) was “blocked S6-RP phosphorylation” and the “S6-RP phosphorylation ex vivo” value (S6-RP; cancer cells from pancreatic cancer patient 1, six hours) was “only partially decreased S6-RP phosphorylation”. The “phosphorylation of S6-RP ex vivo” value (S6-RP; cells from tumor A198, temsirolimus 1 μM, 6 hours) was “inhibited phosphorylation of S6-RP”, the “S6-RP phosphorylation ex vivo” value (S6-RP; tumor cells of pancreatic cancer patient 2 and 3, six hours) was “inhibited S6-RP phosphorylation” and the “inhibition of tumor growth” value [2] was 70%. The “relative growth (RTG)” value ([3]; all tumors except A194, temsirolimus 20 mg/kg days 1-5 i.p., day 28) was “less than 50%”, the tumor response ([3]; tumor A194) was “resistant (greater than 50% RTG and were defined as resistant)” and the tumor response ([3]; tumor A198) was “sensitive (Tumor response was defined as sensitive, when RTG was less than 50% on day 28)”. The “target protein phosphorylation in vivo” value (S6 ribosomal protein [4]) was “strongly inhibited target protein phosphorylation”.
